Source: US7057052B2, “Heterocyclic quinones as pharmaceutical agents” (Duke University, priority 2002, dated 2006)

Columns and labels:
Assay type in all cases: biochemical
[1] = target: T1, Cdc25A (Homo sapiens, UniProt P30304); assay: Cdc25A phosphatase inhibition screen at 50 μM; conditions: read-out: Percent Inhibition at 50 uM compound, Cdc25 A
T1 sequence (P30304 1-524): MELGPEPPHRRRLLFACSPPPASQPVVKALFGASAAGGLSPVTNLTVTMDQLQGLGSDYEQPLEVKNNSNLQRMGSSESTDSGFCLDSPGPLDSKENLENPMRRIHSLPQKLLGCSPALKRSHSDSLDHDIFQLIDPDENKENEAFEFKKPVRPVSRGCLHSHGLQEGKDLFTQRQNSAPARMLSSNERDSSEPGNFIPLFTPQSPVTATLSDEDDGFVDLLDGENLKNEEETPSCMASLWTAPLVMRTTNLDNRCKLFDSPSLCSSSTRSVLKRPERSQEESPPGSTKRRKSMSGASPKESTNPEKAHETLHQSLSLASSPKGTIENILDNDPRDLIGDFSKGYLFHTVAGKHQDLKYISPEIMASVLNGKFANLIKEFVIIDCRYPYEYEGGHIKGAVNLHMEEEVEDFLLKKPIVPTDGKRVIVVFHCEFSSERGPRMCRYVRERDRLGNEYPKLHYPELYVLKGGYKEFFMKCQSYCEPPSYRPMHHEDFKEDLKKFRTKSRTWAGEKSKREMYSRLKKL
Experimental: (§1) Using procedures known to those skilled in the art, the compounds listed in Table 3 were screened against Cdc25A, Cdc25B, and Cdc25C at 50 μM. […] To analyze these effects further, the compounds were then screened against Cdc25B in a 3 pt. IC-50, using 1, 7 and 50 μM. Several of the compounds were also screened with an 8 pt. IC-50 process, using 0.1–10 μM, allowing determination of Hill slopes.

[2] = target: T2, Cdc25B (Homo sapiens, UniProt P30305); assay: Cdc25B phosphatase inhibition (50 μM screen, 3 pt. and 8 pt. IC-50); conditions: for IC50: Cdc25B, 3 pt. IC-50 using 1, 7 and 50 μM, read-out: IC50 (3 pt); for inhibition at 50 µM: read-out: Percent Inhibition at 50 uM compound, Cdc25 B
T2 sequence (P30305 1-580): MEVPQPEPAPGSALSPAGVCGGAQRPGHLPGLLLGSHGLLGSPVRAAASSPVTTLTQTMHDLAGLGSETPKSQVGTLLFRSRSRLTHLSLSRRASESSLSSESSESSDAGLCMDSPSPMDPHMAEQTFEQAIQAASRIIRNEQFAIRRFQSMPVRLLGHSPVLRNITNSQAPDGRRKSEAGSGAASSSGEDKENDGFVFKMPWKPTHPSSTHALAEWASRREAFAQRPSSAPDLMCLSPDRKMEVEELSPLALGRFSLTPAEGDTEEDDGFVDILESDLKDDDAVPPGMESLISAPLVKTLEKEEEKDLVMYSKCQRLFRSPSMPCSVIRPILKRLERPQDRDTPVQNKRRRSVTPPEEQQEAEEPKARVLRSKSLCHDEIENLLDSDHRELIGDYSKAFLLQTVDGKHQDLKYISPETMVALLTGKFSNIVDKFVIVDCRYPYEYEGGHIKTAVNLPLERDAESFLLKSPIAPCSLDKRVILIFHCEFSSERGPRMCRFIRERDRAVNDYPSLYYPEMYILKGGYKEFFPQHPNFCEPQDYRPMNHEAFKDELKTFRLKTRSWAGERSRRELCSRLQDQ
Experimental: as §1

[3] = target: T3, Cdc25C (Homo sapiens, UniProt P30307); assay: Cdc25C phosphatase inhibition screen at 50 μM; conditions: read-out: Percent Inhibition at 50 uM compound, Cdc25 C
T3 sequence (P30307 1-473): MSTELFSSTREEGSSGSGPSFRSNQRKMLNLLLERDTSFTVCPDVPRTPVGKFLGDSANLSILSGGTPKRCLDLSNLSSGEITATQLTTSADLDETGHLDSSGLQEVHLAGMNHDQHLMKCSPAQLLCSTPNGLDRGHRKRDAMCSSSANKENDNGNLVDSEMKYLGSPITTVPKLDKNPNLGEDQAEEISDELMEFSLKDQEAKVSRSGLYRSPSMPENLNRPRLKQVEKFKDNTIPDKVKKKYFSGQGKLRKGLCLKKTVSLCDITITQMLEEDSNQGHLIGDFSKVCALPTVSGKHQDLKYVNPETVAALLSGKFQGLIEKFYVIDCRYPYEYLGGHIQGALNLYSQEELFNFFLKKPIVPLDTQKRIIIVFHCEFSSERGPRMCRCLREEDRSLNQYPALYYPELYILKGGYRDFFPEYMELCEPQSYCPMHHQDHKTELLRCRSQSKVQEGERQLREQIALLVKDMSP
Experimental: as §1

inhibition at 50 µM [1] | IC50 [2] | inhibition at 50 µM [2] | inhibition at 50 µM [3] | SMILES
39% | 117 µM | 19% | 20% | COc1cc2[nH]cc(C3=C(O)C(=O)C=C(O)C3=O)c2cc1OC [8A, 2,5-dihydroxy-3-(5,6-dimethoxy-1H-indol-3-yl)-[1,4]-benzoquinone]
90% | 12.8 µM | 32% | 20% | Cc1ccc2c(C3=C(O)C(=O)C=C(O)C3=O)c[nH]c2c1C [8B, 2,5-dihydroxy-3-(6,7-dimethyl-1H-indol-3-yl)-[1,4]-benzoquinone]
98% | 2.8 µM | 79% | 75% | O=C1C=C(O)C(=O)C(c2c[nH]c3c2ccc2ccccc23)=C1O [8C, 2,5-dihydroxy-3-(1H-benzo[g]indol-3-yl)-[1,4]-benzoquinone]
